# Values of other authors, collected in patent US20110223312A1, “TRIGLYCERIDE-ENCAPSULATED PHYTOSTEROL MICROPARTICLES DISPERSED IN BEVERAGES” (priority 2009, published 2011).
# Test system: plasma cholesterol
smiles,measurement,setting,value
CC[C@H](CC[C@@H](C)[C@H]1CC[C@H]2[C@@H]3CC=C4C[C@@H](O)CC[C@]4(C)[C@H]3CC[C@]12C)C(C)C [sitosterol],decrease of the plasma cholesterol level,"9-18 grams of sitosterol per day, coarse powdered form, two earlier human studies",approximately 15%
CC[C@H](CC[C@@H](C)[C@H]1CC[C@H]2[C@@H]3CC=C4C[C@@H](O)CC[C@]4(C)[C@H]3CC[C@]12C)C(C)C [beta sitosterol],lowering of serum cholesterol,"12-18 g per day in divided doses, males with atherosclerosis (Faquhar et al. 1956)",15-20%
